Reference: patent US9149465B2, “Isoxazolines as inhibitors of fatty acid amide hydrolase” (Infinity Pharmaceuticals, Inc., priority 2009, dated 2015)

What follows are molecules tested against T1, human FAAH (Homo sapiens, UniProt O00519) (assay: Inhibition of human FAAH (AMC arachidonoyl amide fluorescence assay)). Settings: inhibitor preincubated 30 minutes at room temperature; 20 μM AMC arachidonoyl amide; 4 hours; read-out: Activity (Ki, inhibitors of human FAAH).
T1 construct: host or cells: COS-7 cells, transient transfection; 13,000 g membrane fraction solubilised in 1% Triton X-100
T1 sequence (O00519 1-579): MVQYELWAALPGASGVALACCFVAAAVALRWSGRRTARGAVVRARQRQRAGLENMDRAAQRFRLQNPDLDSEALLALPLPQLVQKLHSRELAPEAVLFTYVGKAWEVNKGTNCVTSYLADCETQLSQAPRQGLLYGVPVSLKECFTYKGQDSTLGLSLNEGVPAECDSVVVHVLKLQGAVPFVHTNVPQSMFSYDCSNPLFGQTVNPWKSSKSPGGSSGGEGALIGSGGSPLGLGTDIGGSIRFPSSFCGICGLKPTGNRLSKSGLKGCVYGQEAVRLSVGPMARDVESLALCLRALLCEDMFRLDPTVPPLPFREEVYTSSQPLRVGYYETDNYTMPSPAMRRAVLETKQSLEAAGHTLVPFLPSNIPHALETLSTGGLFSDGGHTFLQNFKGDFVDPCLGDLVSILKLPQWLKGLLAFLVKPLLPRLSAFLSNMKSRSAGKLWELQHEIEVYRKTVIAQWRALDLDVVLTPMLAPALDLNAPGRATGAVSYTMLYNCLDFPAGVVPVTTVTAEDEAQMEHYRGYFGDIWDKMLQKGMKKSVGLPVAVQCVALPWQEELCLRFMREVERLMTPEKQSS
Format: biochemical
In short: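 Solubilized membrane fraction from COS-7 cells transiently expressing human FAAH (0.05 mg/mL final) preincubated 30 min at room temperature with 3-fold serially diluted inhibitor, then reacted 4 h at room temperature with 20 μM AMC arachidonoyl amide. Stopped with α-ketoheterocycle; fluorescence read. Ki from single-site competitive fit, Km fixed at 12 μM.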

SMILES | Ki [nM]
CNC(=O)c1ccc(OC2=NOC(C)(c3ccc(OC(F)(F)F)cc3)C2)cn1 (racemic) [I-114] | ≤ 100
BrC1=NOC(c2ccc(-c3nnc(-c4ccccc4)o3)cc2)C1 (single isomer, unassigned) [I-19] | ≤ 100
FC(F)(F)Oc1ccc(C2CC(Oc3cncc(-c4nnco4)c3)=NO2)cc1 (racemic) [I-230] | ≤ 100
O=C(O)c1ccc(OC2=NOC(c3ccc(Br)cc3)C2)cn1 (racemic) [I-150] | ≤ 100
CN(C1=NOC(c2ccc(OC(F)(F)F)cc2)C1)c1ccc(C(=O)O)cc1 (racemic) [I-255] | ≥ 1000
Clc1ccc([C@H]2CC(Oc3cncnc3)=NO2)cc1 (racemic) [I-153] | 100 to 1000
O=C(O)c1ccc(OC2=NO[C@@H](c3ccc(OC(F)(F)F)c(F)c3)C2)cn1 (racemic) [I-123] | ≤ 100
C[C@]1(c2ccc(-c3ccccc3)cc2)CC(Oc2cncnc2)=NO1 (racemic) [I-104] | ≤ 100
Clc1ccccc1C1CC(Br)=NO1 (single isomer, unassigned) [I-5] | 100 to 1000
FC(F)(F)Oc1ccc(C2CC(Oc3ccc(-c4nnn[nH]4)cc3)=NO2)cc1 (racemic) [I-175] | 100 to 1000
Cn1nc(C(F)(F)F)cc1-c1ccc(OC2=NOC(c3ccc(OC(F)(F)F)cc3)C2)cn1 (racemic) [I-191] | ≥ 1000
CSc1ccc(OC2=NOC(C)(c3ccc(OC(F)(F)F)cc3)C2)cn1 (racemic) [I-261] | ≤ 100
c1ccc(Oc2ccc(C3CC(n4cncn4)=NO3)cc2)cc1 (single isomer, unassigned) [I-34] | ≥ 1000
FC(F)(F)Oc1ccc(C2CC(Oc3ccc(-c4cnn[nH]4)nc3)=NO2)cc1 (racemic) [I-236] | ≤ 100
BrC1=NO[C@H](Cc2ccccc2)C1 (single isomer, unassigned) [I-48] | ≥ 1000
FC1(F)Oc2ccc(C3CC(Br)=NO3)cc2O1 (racemic) [I-126] | ≤ 100
FC(F)(F)Oc1ccc(C2CC(Oc3ccc(-c4nnco4)cc3)=NO2)cc1 (racemic) [I-201] | ≤ 100
Fc1cccc(OC2=NOC(c3ccc(Oc4ccccc4)cc3)C2)c1 (single isomer, unassigned) [I-25] | 100 to 1000
C#CCOc1ccc([C@H]2CC(Br)=NO2)cc1 (racemic) [I-142] | ≤ 100
FC(F)(F)Oc1ccc(C2CC(Oc3ccc(-c4ccn[nH]4)nc3)=NO2)cc1 (racemic) [I-192] | ≤ 100
O=C(O)c1ccc(OC2=NOC(c3ccc(OC(F)(F)F)cc3)C2)cc1 (racemic) [I-177] | 100 to 1000
O=[N+]([O-])c1ccc(OC2=NOC(c3ccc(Oc4ccccc4)cc3)C2)cc1 (single isomer, unassigned) [I-29] | 100 to 1000
CN(C)C(=O)c1ccc(OC2=NOC(c3ccc(OC(F)(F)F)cc3)C2)cn1 (racemic) [I-108] | 100 to 1000
O=C(c1ccc([C@H]2CC(Br)=NO2)cc1)N1CCCC1 (racemic) [I-209] | ≤ 100
CNC(=O)c1cncc(OC2=NOC(c3ccc(OC(F)(F)F)cc3)C2)c1 (racemic) [I-54] | ≤ 100

SMILES | Ki [nM]
CC1(c2ccc(OC(F)(F)F)cc2)CC(Oc2cccc(-c3nnco3)c2)=NO1 (racemic) [I-232] | ≤ 100
O=C(O)c1ccc(SC2=NOC(c3ccc(OC(F)(F)F)cc3)C2)cc1 (racemic) [I-251] | ≥ 1000
BrC1=NOC(CCc2ccccc2)C1 (single isomer, unassigned) [I-49] | 100 to 1000
Cc1noc(-c2cccc(OC3=NOC(c4ccc(OC(F)(F)F)cc4)C3)c2)n1 (racemic) [I-199] | ≥ 1000
FC(F)(F)Oc1ccc(C2CC(Oc3cccc(-n4cnnc4)c3)=NO2)cc1 (racemic) [I-221] | ≥ 1000
BrC1=NOC(CCCOc2ccccc2)C1 (single isomer, unassigned) [I-51] | ≤ 100
CS(=O)(=O)c1ccc(OC2=NOC(c3ccc(OC(F)(F)F)cc3)C2)cn1 (racemic) [I-135] | ≤ 100
NC(=O)c1cncc(OC2=NOC(c3ccc(OC(F)(F)F)cc3)C2)c1 (racemic) [I-53] | 100 to 1000
Cn1nc(C(F)(F)F)cc1OC1=NOC(c2ccc(Oc3ccccc3)cc2)C1 (racemic) [I-257] | 100 to 1000
COc1ccc([C@H]2CC(Oc3cccnc3)=NO2)cc1 (racemic) [I-38] | 100 to 1000
CC1(c2ccc(OC(F)(F)F)cc2)CC(Oc2cncc(-c3n[nH]c(=O)o3)c2)=NO1 (racemic) [I-231] | 100 to 1000
Clc1ccc([C@H]2CC(Br)=NO2)cc1 (racemic) [I-3] | ≤ 100
Cc1nnc(-c2ccc(OC3=NOC(c4ccc(Oc5ccccc5)cc4)C3)cn2)o1 (racemic) [I-155] | ≤ 100
O=C(O)c1cc(OC2=NOC(c3ccc(OC(F)(F)F)cc3)C2)ccn1 (racemic) [I-152] | ≤ 100
NC(=O)CCc1ccc(OC2=NOC(c3ccc(Oc4ccccc4)cc3)C2)cn1 (racemic) [I-100] | ≤ 100
COC1=NOC(c2ccc(Oc3ccccc3)cc2)C1 (single isomer, unassigned) [I-45] | ≥ 1000
CC1(c2ccc(OC(F)(F)F)cc2)CC(Oc2ccc(-c3ccn[nH]3)nc2)=NO1 (racemic) [I-242] | ≤ 100
CN(C)S(=O)(=O)c1cccc(OC2=NOC(C)(c3ccc(OC(F)(F)F)cc3)C2)c1 (racemic) [I-233] | ≥ 1000
O=c1ccccn1C1=NOC(c2ccc(Oc3ccccc3)cc2)C1 (single isomer, unassigned) [I-33] | ≥ 1000
O=C(O)c1ccc(OC2=NOC(c3ccc(C(F)(F)F)cc3)C2)cn1 (racemic) [I-170] | ≤ 100
O=C(O)c1ccc(OC2=NOC(c3ccc(OC(F)(F)F)cc3)C2)cn1 (racemic) [I-97] | ≤ 100
Fc1ccc(OC2=NOC(c3ccc(Oc4ccccc4)cc3)C2)cc1C(F)(F)F (racemic) [I-60] | ≥ 1000
CS(=O)(=O)c1ccc(OC2=NOC(c3ccc(C(F)(F)F)cc3)C2)cn1 (racemic) [I-169] | ≤ 100
Fc1cccc(-c2ccc(C3CC(Oc4cncnc4)=NO3)c(F)c2)c1 (racemic) [I-119] | ≤ 100
FC(F)(F)Oc1ccc(C2CC(Oc3ccc(-c4ccc[nH]4)nc3)=NO2)cc1 (racemic) [I-173] | ≤ 100

SMILES | Ki [nM]
Cn1nnc(-c2ccc(OC3=NOC(c4ccc(OC(F)(F)F)cc4)C3)cc2)n1 (racemic) [I-200] | 100 to 1000
N[S@SP3](=O)(=O)c1cccc(OC2=NOC(c3ccc(Oc4ccccc4)cc3)C2)c1 (racemic) [I-63] | ≥ 1000
FC(F)(F)Oc1ccc(C2CC(Oc3ccc(-c4ncco4)nc3)=NO2)cc1 (racemic) [I-163] | ≤ 100
c1ccc(Oc2ccc(C3CC(N4CCCC4)=NO3)cc2)cc1 (racemic) [I-256] | ≥ 1000
CC1(c2ccc(OC(F)(F)F)cc2)CC(Oc2ccc(S(C)(=O)=O)nc2)=NO1 (racemic) [I-167] | ≤ 100
CC1(c2ccc(OC(F)(F)F)cc2)CC(Oc2ccc(C(=O)NO)nc2)=NO1 (racemic) [I-117] | ≤ 100
O=C(NCc1ccccc1)c1ccc([C@H]2CC(Br)=NO2)cc1 (racemic) [I-22] | 100 to 1000
N[S@SP3](=O)(=O)c1cccc(OC2=NOC(c3ccc(Oc4ccccc4)cc3)C2)c1 (racemic) [I-64] | ≥ 1000
COC(=O)c1ccc(OC2=NO[C@@H](c3ccc(Br)cc3)C2)cn1 (racemic) [I-149] | ≤ 100
NC(=O)c1cccc(-c2cncc(OC3=NOC(c4ccc(OC(F)(F)F)cc4)C3)c2)c1 (racemic) [I-73] | ≤ 100
FC(F)(F)c1cccc(OC2=NOC(c3ccc(Oc4ccccc4)cc3)C2)c1 (single isomer, unassigned) [I-26] | ≥ 1000
O=C(O)c1cccc(OC2=NOC(c3ccc(Oc4ccccc4)cc3)C2)c1 (racemic) [I-146] | 100 to 1000
Cc1nnc(-c2cccc(OC3=NOC(c4ccc(Oc5ccccc5)cc4)C3)c2)o1 (racemic) [I-160] | ≤ 100
CC1(c2ccc(OC(F)(F)F)cc2)CC(Oc2ccc(-c3ncco3)nc2)=NO1 (racemic) [I-185] | ≤ 100
CCCCOc1ccc([C@H]2CC(Oc3cncnc3)=NO2)cc1 (racemic) [I-139] | ≤ 100
NC(=O)c1cncc(OC2=NOC(c3ccc(Oc4ccccc4)cc3)C2)c1 (single isomer, unassigned) [I-47] | 100 to 1000
C[C@]1(c2ccc(-c3ccccc3)cc2)CC(Br)=NO1 (racemic) [I-102] | ≤ 100
Fc1ccc(OC2=NOC(c3ccc(Oc4ccccc4)cc3)C2)cc1 (single isomer, unassigned) [I-24] | ≥ 1000
FC(F)(F)Oc1ccc(C2CC(Oc3ccc(-c4nnn[nH]4)nc3)=NO2)cc1 (racemic) [I-195] | ≤ 100
CC(C)Oc1ccc([C@H]2CC(Br)=NO2)cc1 (racemic) [I-15] | ≤ 100
O=C(OCc1ccccc1)c1ccc(C2CC(Br)=NO2)cc1 (single isomer, unassigned) [I-21] | ≤ 100
OCCNC1=NOC(c2ccc(Oc3ccccc3)cc2)C1 (racemic) [I-243] | 100 to 1000
CN(C)S(=O)(=O)c1ccc([C@H]2CC(Oc3ccc(S(C)(=O)=O)nc3)=NO2)cc1 (racemic) [I-213] | ≤ 100
